Experimental data published in patent US20250302788A1, “COMPOSITION COMPRISING CREATINE FOR USE IN THE TREATMENT OF POST VIRAL FATIGUE SYNDROME” (Alzchem Trostberg GmbH, priority 2022, published 2025).
Where two headings read alike, the source gives them in different places.

Legend:
[1] = human, in vivo
[2] = both, human, in vivo
PCFS patients [3] = assay: Incremental treadmill test until exhaustion, Example 3; assay type: in vivo, human
Experimental: In addition the time to exhaustion of the patients was evaluated by an incremental test until exhaustion on a motorized treadmill.

[4] = test system: patients suffering under Post-COVID; assay: MFI-20 multidimensional fatigue inventory test, Example 1; assay type: in vivo, human; details: 4 g/day
Experimental: (§1) The patient-reported outcomes for COVID-19-related signs and symptoms (e.g. headache, concentrating difficulties, anosmia, ageusia) were evaluated with VAS scale. Fatigue, comprising the conditions of the group general fatigue, physical fatigue, metal fatigue, reduced activity, and reduced motivation, was evaluated with a multidimensional fatigue inventory test (MFI-20 test, Smets E. M. et al., J. Psychosom. Res. 1995, 39 (3), 315).

PCFS patients [5] = assay type: in vivo, human
[6] = test system: patients suffering under Post-COVID; assay: VAS scale of COVID-19-related signs and symptoms, Example 1; assay type: in vivo, human; details: 4 g/day
Experimental: as §1

PCFS patients [7] = details: in vivo
PCFS patients [8] = assay: MFI-20 fatigue test, Example 3; assay type: in vivo, human
[9] = test system: patients suffering under Post-COVID; assay: Incremental treadmill test until exhaustion, Example 1; assay type: in vivo, human; details: for Time to exhaustion: 4 g/day
Experimental: In addition the time to exhaustion of the patients was evaluated by an incremental test until exhaustion on a motorized treadmill. Speed and gradient of the treadmill are increased every third minute, starting at 2.7 km/h (1.7 miles per hour) at a 10% gradient and rising at stage 7 to 9.7 km/h (6 miles per hour) at 22% gradient (Will P. M. and Walter J. D., Am Heart. J., 1999 December, 138, 1033).

[10] = test system: patients suffering under Post-COVID; assay: Reported side effects, Example 1; assay type: in vivo, human; details: 4 g creatine monohydrate/day, up to 6 months
Experimental: The number of participants who were randomly assigned, received intended treatment, and were analyzed for the primary outcome at this time was twelve in total, six in experimental group and six in control group.

[11] = normal healthy population; cited from earlier work
[12] = 8 weeks vs baseline, listed as EXP 2, monohydrate
[13] = 8 weeks vs baseline, monohydrate

With `CN(CC(=O)O)C(=N)N.O` [Creatine, creatine monohydrate] the “Total creatine, Vastus medialis muscle” value ([1]; 0 months) was 28.2 ± 3.0 mM, the “Cohen's effect size (d), brain creatine level, left parietal white matter” value ([1]; 3 months) was 0.92 and the “Cohen's effect size (d), brain creatine level, parietal white matter” value ([1]; 3 months) was 1.99. The “Cohen's effect size (d), brain creatine level, right frontal white matter” value ([1]; 3 months) was 1.25, the “Cohen's effect size (d), brain creatine level, right paracentral grey matter” value ([1]; 3 months) was 0.88 and the “Cohen's effect size (d), brain creatine level, right parietal messial grey matter” value ([1]; 3 months) was 1.17. The “Cohen's effect size (d), brain creatine level, thalamus” value ([1]; 3 months) was 0.82, the “Total creatine, Vastus medialis muscle” value ([1]; 3 months) was 30.0 ± 4.2 mM and the “Cohen's effect size (d), brain creatine level, left parietal messial grey matter” value ([1]; 6 months) was 0.84. The “Cohen's effect size (d), brain creatine level, left parietal white matter” value ([1]; 6 months) was 1.17, the “Cohen's effect size (d), brain creatine level, parietal white matter” value ([1]; 6 months) was 1.74 and the “Cohen's effect size (d), brain creatine level, right frontal white matter” value ([1]; 6 months) was 1.32. For the same compound, the “Cohen's effect size (d), brain creatine level, right parietal messial grey matter” value ([1]; 6 months) was 1.06, the “Total creatine, Vastus medialis muscle” value ([1]; 6 months) was 30.6 ± 3.4 mM and the “Total creatine, Left frontal grey matter” value [2] was 6.6 ± 0.6 mM. For the same compound, the “Total creatine, Left frontal white matter” value [2] was 6.7 ± 0.7 mM, the “Total creatine, Left mesial grey matter” value [2] was 8.1 ± 1.3 mM and the “Total creatine, Left paracentral grey matter” value [2] was 6.8 ± 0.8 mM. The “Total creatine, Left parietal white matter” value [2] was 7.5 ± 1.6 mM, the “Total creatine, Left precentral white matter” value [2] was 6.4 ± 1.0 mM and the “Total creatine, Right frontal grey matter” value [2] was 6.6 ± 1.1 mM. For the same compound, the “Total creatine, Right frontal white matter” value [2] was 6.7 ± 1.0 mM, the “Total creatine, Right mesial grey matter” value [2] was 8.4 ± 1.4 mM and the “Total creatine, Right paracentral grey matter” value [2] was 7.2 ± 0.8 mM. For the same compound, the “Total creatine, Right parietal white matter” value [2] was 7.6 ± 1.9 mM, the “Total creatine, Right precentral white matter” value [2] was 6.8 ± 0.9 mM and the “Total creatine, Thalamus” value [2] was 5.1 ± 1.0 mM. The “Total creatine, Vastus medialis muscle” value [2] was 29.0 ± 5.6 mM, the “Cohen's effect size (d) for creatine increase, parietal mesial grey matter” value ([2]; 8 weeks) was 0.65 and the “Total creatine, Left frontal grey matter” value ([2]; 8 weeks) was 6.5 ± 0.5 mM. For the same compound, the “Total creatine, Left frontal white matter” value ([2]; 8 weeks) was 6.8 ± 0.9 mM, the “Total creatine, Left mesial grey matter” value ([2]; 8 weeks) was 8.6 ± 1.1 mM and the “Total creatine, Left paracentral grey matter” value ([2]; 8 weeks) was 6.9 ± 0.9 mM. For the same compound, the “Total creatine, Left parietal white matter” value ([2]; 8 weeks) was 7.8 ± 1.3 mM, the “Total creatine, Left precentral white matter” value ([2]; 8 weeks) was 6.7 ± 0.8 mM and the “Total creatine, Right frontal grey matter” value ([2]; 8 weeks) was 6.7 ± 1.0 mM. The “Total creatine, Right frontal white matter” value ([2]; 8 weeks) was 7.0 ± 1.1 mM, the “Total creatine, Right mesial grey matter” value ([2]; 8 weeks) was 9.2 ± 1.0 mM and the “Total creatine, Right paracentral grey matter” value ([2]; 8 weeks) was 7.6 ± 1.6 mM. The “Total creatine, Right parietal white matter” value ([2]; 8 weeks) was 7.7 ± 1.9 mM, the “Total creatine, Right precentral white matter” value ([2]; 8 weeks) was 7.4 ± 1.1 mM and the “Total creatine, Thalamus” value ([2]; 8 weeks) was 5.3 ± 0.9 mM. For the same compound, the “Total creatine, Vastus medialis muscle” value ([2]; 8 weeks) was 30.4 ± 5.2 mM, the Time to exhaustion (PCFS patients [3]; 8 weeks) was 844 s and the Time to exhaustion (PCFS patients [3]; Baseline) was 824 s. The “Change of time to exhaustion” value (PCFS patients [3]; post-administration (8 weeks) vs baseline) was 20 s, the “General fatigue (MFI-20 score)” value ([4]; 3 months) was 11.3 and the “Mental fatigue (MFI-20 score)” value ([4]; 3 months) was 11.2. The “Physical fatigue (MFI-20 score)” value ([4]; 3 months) was 12.7, the “Reduced activity (MFI-20 score)” value ([4]; 3 months) was 12.0 and the “Reduced motivation (MFI-20 score)” value ([4]; 3 months) was 13.0. For the same compound, the “General fatigue (MFI-20 score)” value ([4]; 6 months) was 12.7, the “Mental fatigue (MFI-20 score)” value ([4]; 6 months) was 10.5 and the “Physical fatigue (MFI-20 score)” value ([4]; 6 months) was 13.2. For the same compound, the “Reduced activity (MFI-20 score)” value ([4]; 6 months) was 12.5, the “Reduced motivation (MFI-20 score)” value ([4]; 6 months) was 12.5 and the “General fatigue (MFI-20 score)” value ([4]; Baseline) was 12.0. For the same compound, the “Mental fatigue (MFI-20 score)” value ([4]; Baseline) was 12.3, the “Physical fatigue (MFI-20 score)” value ([4]; Baseline) was 13.5 and the “Reduced activity (MFI-20 score)” value ([4]; Baseline) was 11.5. The “Reduced motivation (MFI-20 score)” value ([4]; Baseline) was 13.0, the “Ageusia (VAS scale)” value (PCFS patients [5]; 8 weeks) was 0.2 and the “Anosmia (VAS scale)” value (PCFS patients [5]; 8 weeks) was 0.0. The “Concentrating difficulties (VAS scale)” value (PCFS patients [5]; 8 weeks) was 2.2, the “Headache (VAS scale)” value (PCFS patients [5]; 8 weeks) was 0.8 and the “Malaise (VAS scale)” value (PCFS patients [5]; 8 weeks) was 1.0. For the same compound, the “Cohen's effect (d), Ageusia (AGE)” value (PCFS patients [5]; 8 weeks vs baseline) was 0.34, the “Cohen's effect (d), Breathing Difficulties (BRD)” value (PCFS patients [5]; 8 weeks vs baseline) was 0.96 and the “Cohen's effect (d), Headache (HAD)” value (PCFS patients [5]; 8 weeks vs baseline) was 0.93. The “Cohen's effect (d), Difficulties concentrating (DCN)” value (PCFS patients [5]; [12]) was 1.37, the “Cohen's effect (d), Malaise (MAL)” value (PCFS patients [5]; [12]) was 1.81 and the “Cohen's effect (d), Difficulties concentrating (DCN)” value (PCFS patients [5]; [13]) was greater than 0.80. The “Cohen's effect (d), Malaise (MAL)” value (PCFS patients [5]; [13]) was greater than 0.80, the “Ageusia (VAS scale)” value (PCFS patients [5]; Baseline) was 0.0 and the “Anosmia (VAS scale)” value (PCFS patients [5]; Baseline) was 0.0. For the same compound, the “Concentrating difficulties (VAS scale)” value (PCFS patients [5]; Baseline) was 4.2, the “Headache (VAS scale)” value (PCFS patients [5]; Baseline) was 3.2 and the “Malaise (VAS scale)” value (PCFS patients [5]; Baseline) was 4.2. The “Ageusia (VAS scale)” value ([6]; 3 months) was 0.2, the “Anosmia (VAS scale)” value ([6]; 3 months) was 1.0 and the “Concentrating difficulties (VAS scale)” value ([6]; 3 months) was 1.5. The “Headache (VAS scale)” value ([6]; 3 months) was 0.8, the “Ageusia (VAS scale)” value ([6]; 6 months) was 0.0 and the “Anosmia (VAS scale)” value ([6]; 6 months) was 0.8. For the same compound, the “Concentrating difficulties (VAS scale)” value ([6]; 6 months) was 0.0, the “Headache (VAS scale)” value ([6]; 6 months) was 0.5 and the “Ageusia (VAS scale)” value ([6]; Baseline) was 5.0. For the same compound, the “Anosmia (VAS scale)” value ([6]; Baseline) was 5.0, the “Concentrating difficulties (VAS scale)” value ([6]; Baseline) was 4.0 and the “Headache (VAS scale)” value ([6]; Baseline) was 3.8. For the same compound, the “Side effects / tolerability” value (PCFS patients [7]) was “well-tolerated”, the “General fatigue (MFI-20 score)” value (PCFS patients [8]; 8 weeks) was 12.0 and the “Mental fatigue (MFI-20 score)” value (PCFS patients [8]; 8 weeks) was 12.2. For the same compound, the “Physical fatigue (MFI-20 score)” value (PCFS patients [8]; 8 weeks) was 11.4, the “Reduced activity (MFI-20 score)” value (PCFS patients [8]; 8 weeks) was 12.0 and the “Reduced motivation (MFI-20 score)” value (PCFS patients [8]; 8 weeks) was 10.3. The “Cohen's effect (d), General Fatigue” value (PCFS patients [8]; 8 weeks vs baseline) was 0.44, the “Cohen's effect (d), Mental Fatigue (MF)” value (PCFS patients [8]; 8 weeks vs baseline) was 1.32 and the “Cohen's effect (d), Physical Fatigue (PF)” value (PCFS patients [8]; 8 weeks vs baseline) was 0.83. The “Cohen's effect (d), Reduced Motivation (RM)” value (PCFS patients [8]; 8 weeks vs baseline) was 1.07, the “Cohen's effect (d), Reduced activity (RA)” value (PCFS patients [8]; 8 weeks vs baseline) was 1.52 and the “General fatigue (MFI-20 score)” value (PCFS patients [8]; Baseline) was 12.6. For the same compound, the “Mental fatigue (MFI-20 score)” value (PCFS patients [8]; Baseline) was 13.4, the “Physical fatigue (MFI-20 score)” value (PCFS patients [8]; Baseline) was 12.2 and the “Reduced activity (MFI-20 score)” value (PCFS patients [8]; Baseline) was 13.6. The “Reduced motivation (MFI-20 score)” value (PCFS patients [8]; Baseline) was 11.6, the Time to exhaustion ([9]; 3-months) was 922 s and the Time to exhaustion ([9]; 6-months) was 959 s. For the same compound, the Time to exhaustion ([9]; Baseline) was 894 s, the “Stage achieved in the treadmill test” value ([9]; placebo group remains at stage 5) was “stage 6” and the “Increase of time to exhaustion” value ([9]; vs baseline, compared to 2.1% after placebo intake) was 7.3%. The Side effects [10] was “no major side effects” and the “Increase of creatine in the brain after creatine supplementation” value [11] was no more than 5%.
